Measurements taken from patent US20260001875A1, “AMINOPYRIMIDINYL DERIVATIVES FOR THE TREATMENT OF PARKINSON'S DISEASE” (UNIVERSITY OF DUNDEE, priority 2022, published 2026).
Read-outs that look alike come from different tables or passages of the source.

How the values were obtained:
Rab10 pThr73 = assay: Rab10 Thr73 dephosphorylation (immunoblot) in LRRK2^G2019S MEFs; type: cell-based; conditions: Mus musculus, read-out: pRab10 inhibited in LRRK2^G2019S MEFs
LRRK2^R1441C = LRRK2^R1441C (Mus musculus, UniProt Q5S006, R1441C); assay: Western blot LRRK2 degradation in LRRK2^R1441C MEFs; type: cell-based; conditions: 4 h treatment
VHL and LRRK2 = target: T1, VHL and LRRK2 (Homo sapiens, UniProt P40337+Q5S007); assay: NanoBRET ternary complex formation assay; type: binding
T1 construct: host or cells: HEK293 (digitonin-permeabilized), with purified labelled VCB added
Procedure: VCB was labeled with Bodipy 576/589 following protocol reported previously 76. Briefly, the VCB complex was mixed with Bodipy 576/589 NHS ester in a 20:1 molar ration and incubated at room temperature (protect from light) for 2 h in reaction buffer (0.1 M sodium phosphate, 75 mM KOAc, 2 mM DTT, pH 7.4). The reaction was quenched by diluting 10 times with reaction buffer and the unreacted dye was removed with a PD-10 MiniTrap desalting column (GE Healthcare) equilibrated with 100 mM BisTris pH 7.0, 100 mM NaCl, 1 mM DTT, pH 7. The eluted labeled protein solution was collected and concentrated with Pierce Concentrator, 3K MWCO (Thermo scientific).
Hek293 cells were transfected with LRRK2-NanoLuc vector (Promega, NV3401) for 24 h, harvested, and resuspended into OptiMEM media without phenol red (Life Technologies). The cells were then seeded into white 384-well plate (Corning3570) at a density of 6000 cells/well. […] Each well was added with NanoBRET NanoGlo Substrate (Promega, N2160) before performing the NanoBRET reading on PHERAstar (BMG LABTECH) plate reader equipped with a 450-nm bandpass filter (donor) and a 600-nm long pass filter (acceptor). […]

T1 sequence (Q5S007 whole entry, species assumed): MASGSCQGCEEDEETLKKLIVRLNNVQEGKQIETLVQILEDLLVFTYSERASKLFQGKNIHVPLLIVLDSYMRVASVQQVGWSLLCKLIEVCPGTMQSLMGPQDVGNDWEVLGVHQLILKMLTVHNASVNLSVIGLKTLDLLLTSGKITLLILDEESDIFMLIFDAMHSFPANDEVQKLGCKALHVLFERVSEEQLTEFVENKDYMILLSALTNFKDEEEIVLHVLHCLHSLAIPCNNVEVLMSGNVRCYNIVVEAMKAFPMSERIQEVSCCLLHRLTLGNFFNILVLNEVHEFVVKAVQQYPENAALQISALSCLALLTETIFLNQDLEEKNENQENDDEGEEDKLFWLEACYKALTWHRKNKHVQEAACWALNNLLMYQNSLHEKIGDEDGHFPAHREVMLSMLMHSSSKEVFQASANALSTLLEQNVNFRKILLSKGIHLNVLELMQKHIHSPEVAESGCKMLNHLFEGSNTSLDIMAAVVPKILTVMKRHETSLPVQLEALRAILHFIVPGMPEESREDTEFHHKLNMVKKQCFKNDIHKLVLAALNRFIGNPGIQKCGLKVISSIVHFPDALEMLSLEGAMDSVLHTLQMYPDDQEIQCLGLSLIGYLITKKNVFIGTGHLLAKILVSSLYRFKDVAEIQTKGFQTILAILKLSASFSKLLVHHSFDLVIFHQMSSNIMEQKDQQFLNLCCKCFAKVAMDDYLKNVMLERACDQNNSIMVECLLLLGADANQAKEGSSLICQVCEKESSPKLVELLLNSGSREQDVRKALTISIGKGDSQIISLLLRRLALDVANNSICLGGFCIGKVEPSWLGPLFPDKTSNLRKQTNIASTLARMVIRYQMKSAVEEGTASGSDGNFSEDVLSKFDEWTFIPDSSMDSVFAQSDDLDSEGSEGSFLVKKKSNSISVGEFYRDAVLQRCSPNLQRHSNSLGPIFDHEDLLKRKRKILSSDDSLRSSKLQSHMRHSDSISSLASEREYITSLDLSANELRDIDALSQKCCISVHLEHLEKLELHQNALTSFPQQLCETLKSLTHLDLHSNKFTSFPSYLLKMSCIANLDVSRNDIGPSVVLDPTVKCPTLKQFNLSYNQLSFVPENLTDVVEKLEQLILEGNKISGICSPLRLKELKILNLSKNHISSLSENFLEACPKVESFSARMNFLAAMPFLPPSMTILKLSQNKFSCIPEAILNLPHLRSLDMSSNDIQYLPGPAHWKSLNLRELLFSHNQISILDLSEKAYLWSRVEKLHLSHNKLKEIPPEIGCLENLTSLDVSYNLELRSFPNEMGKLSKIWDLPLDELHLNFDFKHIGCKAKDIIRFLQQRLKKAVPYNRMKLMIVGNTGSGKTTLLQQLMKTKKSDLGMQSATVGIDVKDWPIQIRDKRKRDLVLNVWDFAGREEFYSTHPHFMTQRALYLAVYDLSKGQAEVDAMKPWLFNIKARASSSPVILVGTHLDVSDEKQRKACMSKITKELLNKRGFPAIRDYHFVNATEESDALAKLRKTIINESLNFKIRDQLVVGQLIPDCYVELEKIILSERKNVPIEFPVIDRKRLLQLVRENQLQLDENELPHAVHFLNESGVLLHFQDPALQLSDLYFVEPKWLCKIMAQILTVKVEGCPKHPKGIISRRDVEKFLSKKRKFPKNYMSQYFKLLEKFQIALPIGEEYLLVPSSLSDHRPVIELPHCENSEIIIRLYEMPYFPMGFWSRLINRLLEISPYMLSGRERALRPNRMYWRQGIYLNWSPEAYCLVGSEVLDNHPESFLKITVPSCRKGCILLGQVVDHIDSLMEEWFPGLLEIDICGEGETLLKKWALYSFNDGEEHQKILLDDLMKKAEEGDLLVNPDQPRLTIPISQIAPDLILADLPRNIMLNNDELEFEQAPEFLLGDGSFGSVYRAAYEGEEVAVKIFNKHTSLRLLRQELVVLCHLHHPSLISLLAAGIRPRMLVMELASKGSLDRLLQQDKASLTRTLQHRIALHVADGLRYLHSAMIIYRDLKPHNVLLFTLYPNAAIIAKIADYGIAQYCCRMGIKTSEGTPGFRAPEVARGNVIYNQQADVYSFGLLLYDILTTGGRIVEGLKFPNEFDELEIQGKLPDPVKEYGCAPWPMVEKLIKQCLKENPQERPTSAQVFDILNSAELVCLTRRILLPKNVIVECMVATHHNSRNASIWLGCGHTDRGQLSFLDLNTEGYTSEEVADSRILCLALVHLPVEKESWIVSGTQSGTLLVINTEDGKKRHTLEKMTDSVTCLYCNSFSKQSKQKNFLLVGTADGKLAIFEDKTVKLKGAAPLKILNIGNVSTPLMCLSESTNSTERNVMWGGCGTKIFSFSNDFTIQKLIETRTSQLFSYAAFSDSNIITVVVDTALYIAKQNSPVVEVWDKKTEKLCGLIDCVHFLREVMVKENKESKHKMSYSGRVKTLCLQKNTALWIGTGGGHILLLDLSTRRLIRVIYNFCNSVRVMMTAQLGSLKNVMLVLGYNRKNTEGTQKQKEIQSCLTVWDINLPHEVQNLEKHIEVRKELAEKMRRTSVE
T1 sequence (P40337 54-213 limits assumed, species assumed): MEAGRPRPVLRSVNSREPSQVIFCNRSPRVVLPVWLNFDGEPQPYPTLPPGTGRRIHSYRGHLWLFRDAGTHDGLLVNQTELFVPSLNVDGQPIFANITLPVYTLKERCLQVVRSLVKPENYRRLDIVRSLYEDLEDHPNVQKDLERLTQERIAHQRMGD
T1 sequence (Q15369 17-112 partner limits assumed, species assumed): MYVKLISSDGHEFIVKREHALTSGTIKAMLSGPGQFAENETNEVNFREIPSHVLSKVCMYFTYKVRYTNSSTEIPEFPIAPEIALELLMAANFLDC
T1 sequence (Q15370 1-104 partner limits assumed, species assumed): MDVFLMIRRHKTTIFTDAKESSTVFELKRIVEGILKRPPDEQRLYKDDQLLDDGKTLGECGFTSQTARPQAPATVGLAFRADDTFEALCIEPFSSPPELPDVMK

Structure (SMILES)	inhibition at 0.033 µM (Rab10 pThr73; 33 nM/4 h treatment) [%]	inhibition at 0.033 µM (Rab10 pThr73; 33 nM/24 h treatment) [%]	LRRK2^R1441C degradation (in words) (LRRK2^R1441C)	ternary complex formation with VHL and LRRK2 (in words) (VHL and LRRK2)	Dmax of LRRK2^R1441C degradation (LRRK2^R1441C; dose response)
CNc1nc(Nc2ccc(C(=O)N3CCN(C[C@H]4CC[C@@H](CSC(C)(C)[C@H](NC(=O)C5(F)CC5)C(=O)N5C[C@H](O)CC5C(=O)NCc5ccc(-c6scnc6C)cc5)CC4)CC3)cc2OC)ncc1Cl (some centres unmarked) [XL01134]	0 to 70	0 to 90			
CNc1nc(Nc2ccc(C(=O)N3CCN(C[C@H]4CC[C@H](CSC(C)(C)[C@H](NC(=O)C5(F)CC5)C(=O)N5C[C@@H](O)CC5C(=O)NCc5ccc(-c6scnc6C)cc5)CC4)CC3)cc2OC)ncc1Cl (stereo partly drawn) [Cis-XL01126, (2S,4S)-1-((R)-3-((((1r,4R)-4-((4-(4-((5-chloro-4-(methylamino)pyrimidin-2-yl)amino)-3-methoxybenzoyl)piperazin-1-yl)methyl)cyclohexyl)methyl)thio)-2-(1-fluorocyclopropane-1-carboxamido)-3-methylbutanoyl)-4-hydroxy-N-(4-(4-methylthiazol-5-yl)benzyl)pyrrolidine-2-carboxamide]			cannot degrade LRRK2^R1441C	cannot form ternary complex	
CNc1nc(Nc2ccc(C(=O)N3CCN(CCOCCOCCSC(C)(C)[C@H](NC(=O)C4(F)CC4)C(=O)N4C[C@H](O)C[C@H]4C(=O)NCc4ccc(-c5scnc5C)cc4)CC3)cc2OC)ncc1Cl [SD75, (2S,4R)-1-((R)-3-((2-(2-(2-(4-(4-((5-chloro-4-(methylamino)pyrimidin-2-yl)amino)-3-methoxybenzoyl)piperazin-1-yl)ethoxy)ethoxy)ethyl)thio)-2-(1-fluorocyclopropane-1-carboxamido)-3-methylbutanoyl)-4-hydroxy-N-(4-(4-methylthiazol-5-yl)benzyl)pyrrolidine-2-carboxamide]	0 to 60	0 to 70			
CNc1nc(Nc2ccc(C(=O)N3CCN(C[C@H]4CC[C@H](CSC(C)(C)[C@H](NC(=O)C5(F)CC5)C(=O)N5C[C@H](O)CC5C(=O)NCc5ccc(-c6scnc6C)cc5)CC4)CC3)cc2OC)ncc1Cl (stereo partly drawn) [XL01126, (2S,4R)-1-((R)-3-((((1R,4R)-4-((4-(4-((5-chloro-4-(methylamino)pyrimidin-2-yl)amino)-3-methoxybenzoyl)piperazin-1-yl)methyl)cyclohexyl)methyl)thio)-2-(1-fluorocyclopropane-1-carboxamido)-3-methylbutanoyl)-4-hydroxy-N-(4-(4-methylthiazol-5-yl)benzyl)pyrrolidine-2-carboxamide]				highest ternary complex	80-90%
